According to patent US20200190062A1, “HETEROCYCLIC COMPOUND AND PHARMACEUTICAL COMPOSITION COMPRISING SAME” (BEYONDBIO INC., priority 2015, published 2020):
Counter-ions that a name gives are not always drawn.

Legend:
CDK1/cyclinB = target: T1, CDK1/cyclinB (Homo sapiens, UniProt P06493); assay: Inhibition of CDK enzyme activity (ADP-Glo kinase assay); format: biochemical; details: 10 uM ATP, histone H1 substrate
T1 construct: purchased Merck Millipore

CDK2/cyclinE = target: T2, CDK2/cyclinE (Homo sapiens, UniProt P24941); assay: as above; format: biochemical; details: 10 uM ATP, histone H1 substrate
T2 construct: purchased Merck Millipore
Summary of the method: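 Kinase reactions in 50 mM Tris-HCl pH 7.5 with MgCl2, EGTA, EDTA and DTT, at 10 µM ATP. CDK2/cyclinE and CDK5/p25 were used at 10 nM and CDK6/cyclinD3 at 50 nM with 0.125 mg/ml histone H1; CDK4/cyclinD1 was used at 20 nM with 0.125 mg/ml Rb protein. After 60 min at 30 °C, ADP was read by ADP-Glo luminescence and IC50 taken from % inhibition versus no-compound control.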

T98G = assay: Inhibition of cancer cell proliferation (MTT); format: cell-based, human
Summary of the method: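 Growth inhibition over 72 h was measured in attached cultures (3000 per well) with 0.08% DMSO as the control. Viable cells were detected with a 2 h MTT step, and the concentration giving 50% inhibition was taken as GI50.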

Tau protein = assay: Inhibition of Tau phosphorylation (Western blot, pSer202) in SH-SY5Y cells; format: cell-based; details: 4 hrs
Experimental: SH-SY5Y cells expressing Tau protein were cultured in DMEM containing 10% FBS. 2.5×10^6 cells were placed in a 6-well plate and incubated at 5% CO2 and 37° C. for 16 hrs. The compounds obtained in the above Examples serially diluted ⅓ from 3 uM to 0.5 nM or the compounds in a concentration of 0.3, 0.1, 0.03, 0.01, 0.003 uM were treated for 4 hrs in DMEM containing 5% FBS. After 4 hrs, the culture solution was removed, washed with PBS, and cells were lysed by adding 100 ul of lysis buffer. The lysis buffer consisted of 50 mM Tris-HCl (pH 7.5), 150 mM NaCl, 5 mM EDT, 1 mM EGTA, 50 mM NaF, 1 mM PMSF, 1 mM Na3VO4, 2.5 mM DTT, 1% Triton X-100, and Protease inhibitor (Pierce). The lysed cells were centrifuged at 10,000 rpm and 4° C. for 10 min and the proteins in the supernatant were quantified. 25 ug of the proteins were electrophoresed on a SDS-PAGE gel and transferred to PVDF (Amersharm) membrane. The PVDF membrane was immersed in T-PBS containing 10% skim milk and shaken for 1 hr at room temperature. The primary antibody, Phosph-Tau[pSer202] (Abcam), diluted 1:1500 in T-PBS solution containing 5% skim milk was reacted with the membrane at room temperature for 2 hrs. The membrane was washed with T-PBS. The secondary antibody, Anti-rabbit IgG HRP, diluted 1:5000 was added to the membrane, reacted at room temperature for 1 hr, and washed.

A549 = assay: Inhibition of cancer cell proliferation (MTT); format: cell-based, human; details: Homo sapiens, A549, 72 h
Summary of the method: (§1)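 Cells were seeded at 3000/well (A549, SK-N-SH and SH-SY5Y in DMEM, NCI-H23 in […], all with 10% FBS), allowed to attach for 16 h, then exposed to compounds at 0.004–10 uM for 72 h at 37 °C. MTT formazan was read at 535 nm, and GI50 was calculated relative to 0.08% DMSO controls.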

NCI-H23 = assay: Inhibition of cancer cell proliferation (MTT); format: cell-based, human; details: Homo sapiens, NCI-H23, 72 h
Summary of the method: as §1

T1 sequence (P06493 whole entry): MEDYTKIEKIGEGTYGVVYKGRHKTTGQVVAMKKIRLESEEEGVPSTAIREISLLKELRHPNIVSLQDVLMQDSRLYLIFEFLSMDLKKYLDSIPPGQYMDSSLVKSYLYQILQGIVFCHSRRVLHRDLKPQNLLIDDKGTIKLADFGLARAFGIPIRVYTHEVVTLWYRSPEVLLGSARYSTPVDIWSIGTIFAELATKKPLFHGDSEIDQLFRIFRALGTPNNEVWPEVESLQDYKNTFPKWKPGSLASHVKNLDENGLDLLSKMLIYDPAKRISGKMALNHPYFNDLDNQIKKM
T1 sequence (P14635 whole entry partner): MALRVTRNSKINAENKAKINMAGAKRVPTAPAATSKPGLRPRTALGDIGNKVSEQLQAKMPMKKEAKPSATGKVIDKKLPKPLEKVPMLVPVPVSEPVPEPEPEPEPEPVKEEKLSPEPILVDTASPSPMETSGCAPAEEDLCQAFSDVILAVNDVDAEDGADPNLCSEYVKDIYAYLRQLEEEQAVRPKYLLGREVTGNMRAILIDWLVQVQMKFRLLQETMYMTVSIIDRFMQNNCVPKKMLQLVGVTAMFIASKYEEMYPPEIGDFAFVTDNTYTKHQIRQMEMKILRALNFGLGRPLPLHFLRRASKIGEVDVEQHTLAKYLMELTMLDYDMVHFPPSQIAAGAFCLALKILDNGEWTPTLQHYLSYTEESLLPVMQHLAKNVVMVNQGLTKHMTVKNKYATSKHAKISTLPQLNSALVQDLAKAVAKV

SMILES	IC50 (CDK1/cyclinB) [nM]	IC50 (CDK2/cyclinE) [nM]	GI50 (T98G; 72 hrs) [nM]	Phosphorylation (%) of Tau (Tau protein; 0.0005 uM) [%]	Phosphorylation (%) of Tau (Tau protein; 0.0014 uM) [%]	Phosphorylation (%) of Tau (Tau protein; 0.0041 uM) [%]	Phosphorylation (%) of Tau (Tau protein; 0.012 uM) [%]	Phosphorylation (%) of Tau (Tau protein; 0.037 uM) [%]	Phosphorylation (%) of Tau (Tau protein; 0.11 uM) [%]	GI50 (A549) [nM]	GI50 (NCI-H23) [nM]	GI50 (T98G; Homo sapiens, T98G, 72 h) [nM]	Phosphorylation (%) of Tau (Tau protein; 0.003 uM) [%]	Phosphorylation (%) of Tau (Tau protein; 0.01 uM) [%]	Phosphorylation (%) of Tau (Tau protein; 0.03 uM) [%]	Phosphorylation (%) of Tau (Tau protein; 0.1 uM) [%]	Phosphorylation (%) of Tau (Tau protein; 0.33 uM) [%]	Phosphorylation (%) of Tau (Tau protein; 1 uM) [%]	Phosphorylation (%) of Tau (Tau protein; 3 uM) [%]
Nc1nccc(-c2nc(-c3ccnc(N)c3F)ccc2O)n1 [Example 8]	2.1	2.1	190	40	43	23	0	0	0	–	–	–	–	–	–	–	–	–	–
Nc1nccc(-c2ccc(O)c(-c3ccnc(N)n3)n2)n1 [Example 61, 2,6-bis(2-aminopyrimidin-4-yl)pyridin-3-ol 3hydrochloride]	0.4	0.5	–	–	–	–	–	–	–	210	430	–	–	–	–	–	–	–	–
Cc1cc(-c2nc(-c3ccnc(N)c3F)ccc2O)nc(N)n1 [Example 71, 2′-amino-6-(2-amino-6-methylpyrimidin-4-yl)-3′-fluoro-[2,4′-bipyridin]-5-ol 3hydrochloride]	0.2	0.3	–	–	–	–	–	–	–	20	40	60	110	101	35	26	–	–	–
Nc1nccc(-c2ccc(O)c(-c3ccnc(N)n3)n2)n1 [Example 1, 2,6-bis(2-aminopyrimidin-4-yl)pyridin-3-ol]	1.5	1.5	–	–	–	–	88	92	51	–	–	–	–	–	–	–	28	30	25
Nc1cc(-c2ccc(O)c(-c3ccnc(N)n3)n2)ccn1 [Example 10, 2′-amino-6-(2-aminopyrimidin-4-yl)-[2,4′-bipyridin]-5-ol]	3.6	2.6	–	–	–	–	101	84	60	–	–	–	–	–	–	–	39	11	13
